Reference: patent US8742167B2, “Therapeutic formulations based on asiatic acid and selected salts thereof” (Shanghai Institute of Pharmaceutical Industry, priority 2008, dated 2014)
“And” between values parts separate entries of the source, which are not always exact repeats. Identical values can stand only once. “Also recorded” adds a separate entry of the source. Counter-ions that a name gives are not always drawn. Like-named read-outs stand apart in the source and are kept apart here. Marks after values point to notes of the source that are not given here.

Columns and labels:
[1] = Solubility in water and methanol (saturated solutions, HPLC); assay type: physicochemical; conditions: for Solubility: single preparations (inj 1A-1C)
Method: Approximately 5 mg of asiatic acid were transferred into a 25 mL volumetric flask, and 1 mL, of methanol was added and mixed well, until the acid had dissolved in the methanol. The volumetric flask then was brought to volume with mobile phase and mixed well. [table] Saturated solutions obtained from starting material and salt in methanol and water were filtered and diluted accordingly with mobile phase. No dilution was performed for asiatic acid in water. Samples were prepared in triplicate except for the sodium salt prepared in methanol, for which two preparations were done.

[2] = system: bleomycin-induced pulmonary fibrosis in rats; test: Mortality during experiment days 7-28, bleomycin-induced pulmonary fibrosis in rats; assay type: in vivo, SD rats
Method: (§1) Male SD rats, body weight 250-300 g. The animals were anesthetized with 3% seconal, laid flat and fixed onto the operating table. The necks of the animals were disinfected with alcohol and cut to expose tracheae. A needle was inserted via the space between tracheal rings centripetally, and 5 mg/kg of bleomycin was injected. The rats were kept upright and rotated, in order to keep the solution uniformly distributed in the lungs. Then the incisions were sutured.
(§2) After the rats regained consciousness, they were randomly grouped. The animals were divided into (i) a group receiving administration on the next day after establishing the model and (ii) a group receiving administration at 7 days after the model was established. Included were 27, 9, and 3 mg/kg p.o.×28 d asiatic acid groups, 0.6 mg/kg p.o.×28 d dexamethasone group, 36 mg/kg p.o.×28 d asiaticoside group, model group, and blank group. Normal saline was administered for the model and blank groups. On the 28th day after asiatic acid and asiaticoside administration, survival and weight ratio of lungs were measured; pathological examination and serological examination were performed.

Type III collagen = Type III collagen content, bleomycin rat model; assay type: in vivo, SD rats
Method: as §1, §2

TFG-β = test: Serological test (ELISA kit) of TFG-β in rats of bleomycin-induced pulmonary fibrosis; assay type: in vivo, SD rats; conditions: serum; for TFG-β (2nd day) X ± SD: dosing from 2nd day; for TFG-β (7th day) X ± SD: dosing from 7th day
Method: TFG-β Kit, Human 96T ELISA kit imported by Shanghai Jingmei
as §1, §2
(§3) Serum samples were prepared according to a standard protocol (centrifuged 3000 rpm, 10 minutes after collection) and were stored at −20° C. Testing was conducted in accordance with kit instructions.

Hydroxyproline = test: Measured value of hydroxyproline in experiment of asiatic acid antagonizing fibrosis; assay type: in vivo, SD rats; design: Measured Value of Hydroxyproline (on 2nd day), single animals / Measured Value of Hydroxyproline (on 2nd day), X / Measured Value of Hydroxyproline (on 7th day), single animals / Measured Value of Hydroxyproline (on 7th day), X: unit not given here; conditions: for Measured Value of Hydroxyproline (on 2nd day), X / Measured Value of Hydroxyproline (on 7th day), X: group mean
Method: as §1, §2

[3] = system: bleomycin-induced pulmonary fibrosis in rats; test: Lung weight index of bleomycin-induced pulmonary fibrosis in rats; assay type: in vivo, SD rats; conditions: for lung weight ratio (%): (lung weight/body weight)x100%
Method: as §1, §2
Effect of on lung weight index of bleomycin-induced pulmonary fibrosis in rats treated with asiatic acid Body weight and lung weight were measured after the rats were sacrificed. Lung weight ratio=(lung weight/body weight)×100%.

TNF-α = test: Serological test (ELISA kit) of TNF-α in rats of bleomycin-induced pulmonary fibrosis; assay type: in vivo, SD rats; conditions: serum; for TNF-α (2nd day) X ± SD: dosing from 2nd day; for TNF-α (7th day) X ± SD: dosing from 7th day
Method: TNF-α Kit, Human 96T ELISA kit imported by Shanghai Jingmei
as §1, §2, §3

[4] = system: pulmonary fibrosis induced by bleomycin in rats; test: Pathological analysis of lung (HE staining; collagen fiber and elastic fiber dual staining); assay type: in vivo, SD rats; conditions: asiaticoside 36 mg/kg; administration on the next day after establishing model
Method: as §1, §2
The lung tissues were fixed in 10% formalin for 1 week. […] The thickness of sections was […]. Routine hematoxylin-eosin (HE) staining was performed. Dual special staining of collagen fibers and elastic fibers were conducted in order to detect the degree of fibrosis. The staining of the two groups of sections was observed and the results were as follows.

[5] = dexamethasone (0.6 mg/kg), individual rats 1-6
[6] = asiaticoside 36 mg/kg, individual rats 1-10

Question: Which Solubility ([1]; MeOH, sodium salt) does the source give for `C[C@H]1[C@H](C)CC[C@]2(C(=O)O)CC[C@]3(C)C(=CC[C@@H]4[C@@]5(C)C[C@@H](O)[C@H](O)[C@@](C)(CO)[C@@H]5CC[C@]43C)[C@H]12` [Asiatic acid-Na salt NaOH, asiatic acid sodium salt] here?
Answer: 24080 µg/mL

Question: And the Solubility ([1]; methanol, organic solvent or mixture, thermodynamic from solid, MeOH, read-out: Solubility)?
Answer: 25400 µg/mL

Question: And the “times more soluble than asiatic acid” value ([1]; water)?
Answer: ~228 times

Question: What about the Solubility ([1]; water, thermodynamic from solid, water, read-out: Solubility) of the same molecule?
Answer: 6860 µg/mL

Question: And the Solubility ([1]; water, sodium salt)?
Answer: 6360 µg/mL and 7320 µg/mL

Question: What does the source list for `C[C@@H]1C[C@H]2[C@@H]3CCC4=CC(=O)C=C[C@]4(C)[C@@]3(F)[C@@H](O)C[C@]2(C)[C@@]1(O)C(=O)CO` [Dexamethasone, reference compound]?
Answer: remaining samples at the end of study ([2]; dexamethasone 0.6 mg/kg p.o. x 28 d, dosing started on 2nd day, 14 on day 7): 6; number of deaths ([2]; dexamethasone 0.6 mg/kg p.o. x 28 d, dosing started on 2nd day, days 7-28): 8; number of deaths ([2]; dexamethasone 0.6 mg/kg p.o. x 28 d, dosing started on 7th day): 7; remaining samples at the end of study ([2]; dexamethasone 0.6 mg/kg p.o. x 28 d, dosing started on 7th day, 13 in the group): 6; Type III collagen content X ± SD (Type III collagen; Dex (0.6 mg/kg), treatment starting on Day 7): 0.518 ± 0.527; TFG-β (2nd day) X ± SD (TFG-β; dexamethasone 0.6 mg/kg): 0.751 ± 0.214 OD value; TFG-β (7th day) X ± SD (TFG-β; dexamethasone 0.6 mg/kg): 0.717 ± 0.197 OD value; Measured Value of Hydroxyproline (on 2nd day), X (Hydroxyproline; dexamethasone (0.6 mg/kg)): 23.45; Measured Value of Hydroxyproline (on 7th day), X (Hydroxyproline; dexamethasone (0.6 mg/kg)): 27.35; Measured Value of Hydroxyproline (on 2nd day), single animals (Hydroxyproline; [5]): 19.86 and 23.31 and 21.69 and 24.63 and 25.36 and 25.87; Measured Value of Hydroxyproline (on 7th day), single animals (Hydroxyproline; [5]): 25.17 and 27.44 and 25.99 and 29.66 and 28.07 and 27.75; lung weight ratio (%) ([3]; dexamethasone 0.6 mg/kg, started 7 day after model established): 1.14%; lung weight ratio (%) ([3]; dexamethasone 0.6 mg/kg, started from the second day): 1.31%; lung weight (g) X ± SD ([3]; dexamethasone 0.6 mg/kg, 28-day administration started 7 day after model established): 2.05 ± 0.40 g; lung weight (g) X ± SD ([3]; dexamethasone 0.6 mg/kg, 28-day administration started from the second day): 2.06 ± 0.52 g; TNF-α (2nd day) X ± SD (TNF-α; dexamethasone 0.6 mg/kg): 0.073 ± 0.006 OD value; TNF-α (7th day) X ± SD (TNF-α; dexamethasone 0.6 mg/kg): 0.060 ± 0.006 OD value

Question: For `C[C@H]1[C@H](C)CC[C@]2(C(=O)O[C@@H]3O[C@H](CO[C@@H]4O[C@H](CO)[C@@H](O[C@@H]5O[C@H](C)[C@H](O)[C@@H](O)[C@H]5O)[C@H](O)[C@H]4O)[C@@H](O)[C@H](O)[C@H]3O)CC[C@]3(C)C(=CC[C@@H]4[C@@]5(C)C[C@@H](O)[C@H](O)[C@@](C)(CO)[C@@H]5CC[C@]43C)[C@H]12` [Asiaticoside, asiaticoside], which “lung pathology, HE staining” value [4] is on record?
Answer: less serious than those of the model group

Question: And the “remaining samples at the end of study” value ([2]; asiaticoside 36 mg/kg p.o. x 28 d, dosing started on 2nd day, 14 on day 7)?
Answer: 12

Question: And the number of deaths ([2]; asiaticoside 36 mg/kg p.o. x 28 d, dosing started on 2nd day, days 7-28)?
Answer: 2

Question: What about the number of deaths ([2]; asiaticoside 36 mg/kg p.o. x 28 d, dosing started on 7th day) of the same molecule?
Answer: 2

Question: And the “remaining samples at the end of study” value ([2]; asiaticoside 36 mg/kg p.o. x 28 d, dosing started on 7th day, 13 in the group)?
Answer: 11

Question: And the “survival / bleomycin-induced death” value ([2]; rats treated with bleomycin, treatment initiated one day or seven days after bleomycin)?
Answer: largely prevented bleomycin-induced death; also recorded: significantly enhance survival

Question: And the “serum levels of type III collagen” value (Type III collagen; overall statement)?
Answer: significantly decrease bleomycin-induced fibrosis

Question: What about the “TFG-β (2nd day) X ± SD” value (TFG-β; asiaticoside 36 mg/kg) of the same molecule?
Answer: 0.670 ± 0.155 OD value

Question: What about the “TFG-β (7th day) X ± SD” value (TFG-β; asiaticoside 36 mg/kg) of the same molecule?
Answer: 1.181 ± 0.364 OD value

Question: What about the “Measured Value of Hydroxyproline (on 2nd day), X” value (Hydroxyproline; asiaticoside 36 mg/kg) of the same molecule?
Answer: 24.11

Question: What about the “Measured Value of Hydroxyproline (on 7th day), X” value (Hydroxyproline; asiaticoside 36 mg/kg) of the same molecule?
Answer: 26.57

Question: And the “Measured Value of Hydroxyproline (on 2nd day), single animals” value (Hydroxyproline; [6])?
Answer: 28.56 and 28.69 and 19.63 and 25.34 and 28.11 and 20.54 and 25.36 and 19.47 and 25.25 and 20.11

Question: What about the “Measured Value of Hydroxyproline (on 7th day), single animals” value (Hydroxyproline; [6]) of the same molecule?
Answer: 28.19 and 24.36 and 28.17 and 24.69 and 29.1 and 25.11 and 25.91 and 24.97 and 29.69 and 25.55

Question: And the “serum levels of hydroxyproline” value (Hydroxyproline; overall statement)?
Answer: significantly decrease bleomycin-induced fibrosis

Question: What about the “lung weight ratio (%)” value ([3]; asiaticoside 36 mg/kg, started 7 day after model established) of the same molecule?
Answer: 0.80** %

Question: And the “lung weight ratio (%)” value ([3]; asiaticoside 36 mg/kg, started from the second day)?
Answer: 0.84** %

Question: And the “lung weight (g) X ± SD” value ([3]; asiaticoside 36 mg/kg, 28-day administration started 7 day after model established)?
Answer: 2.59 ± 0.33 g

Question: And the “lung weight (g) X ± SD” value ([3]; asiaticoside 36 mg/kg, 28-day administration started from the second day)?
Answer: 2.62 ± 0.38 g

Question: What about the “lung weight to body weight ratio” value ([3]; starting on 2nd or 7th day, compared with the model group) of the same molecule?
Answer: significantly decrease bleomycin-induced lung fibrosis

Question: What about the “TNF-α (2nd day) X ± SD” value (TNF-α; asiaticoside 36 mg/kg) of the same molecule?
Answer: 0.064 ± 0.013 OD value

Question: And the “TNF-α (7th day) X ± SD” value (TNF-α; asiaticoside 36 mg/kg)?
Answer: 0.091 ± 0.027 OD value
